pEC50: −log10 of the molar value. Where two headings read alike, the source gives them in different places.
Legend:
[1] = Cytotoxicity in mitogen stimulated uninfected human PBM cells (trypan blue exclusion); assay type: cell-based
Description: The cells were counted after 6 days using a hemacytometer and the trypan blue exclusion method, as described by Schinazi et al., Antimicrobial Agents and Chemotherapy, 22(3), 499 (1982).

[2] = tested on: human PBM cells; details: 10 μM radiolabeled FTC, 2-24 hours
Method: (§1) Studies were undertaken using radiolabeled agent in order to follow the intracellular profiles of the parent drug and metabolites detected within the cell. All studies were conducted in duplicate. […] Cells are exposed to the drug for 2, 6, 12 and 24 hours. At these timepoints, the medium is removed and the cells are washed two times with cold Hank's balanced salt solution. Extraction is performed with addition of 0.2 ml of 60% cold methanol/water and stored overnight at −70° C. The following morning, the suspensions are centrifuged and extractions are repeated two times for 0.5 hours at −70° C. The total supernatants (0.6 ml) are lyophilized to dryness. The residues are resuspended in 250 μl of water and aliquots comprising between 50 and 100 μl are analyzed by HPLC. Quantitation of intracellular parent drug and metabolic derivatives are conducted by HPLC. Because of the potential acid lability of some compounds, a buffer system close to physiological pH is used for the separation of the metabolites.

[3] = tested on: hepG2 cells
Method: as §1

[4] = tested on: Vero cells; details: African green monkey
[5] = tested on: CEM cells; details: human
[6] = tested on: HIV-1 (strain LAV); assay: microbe, parasite or virus in culture; assay type: cell-based
Description: It is often desirable to screen a number of racemic mixtures of nucleosides as a preliminary step to determine which warrant further resolution into enantiomerically enriched components and evaluation of antiviral activity. The ability of nucleosides to inhibit HIV can be measured by various experimental techniques. The technique used herein, and described in detail below, measures the inhibition of viral replication in phytohemagglutinin (PHA) stimulated human peripheral blood mononuclear (PBM) cells infected with HIV-1 (strain LAV). The amount of virus produced is determined by measuring the virus-coded reverse transcriptase enzyme. The amount of enzyme produced is proportional to the amount of virus produced.
A. Three-day-old phytohemagglutinin-stimulated PBM cells (10^6 cells/ml) from hepatitis B and HIV-1 seronegative healthy donors were infected with HIV-1 (strain LAV) at a concentration of about 100 times the 50% tissue culture infectious dose (TICD 50) per ml and cultured in the presence and absence of various concentrations of antiviral compounds.
B. Approximately one hour after infection, the medium, with the compound to be tested (2 times the final concentration in medium) or without compound, was added to the flasks (5 ml; final volume 10 ml). AZT was used as a positive control.
C. The cells were exposed to the virus (about 2×10^5 dpm/ml, as determined by reverse transcriptase assay) and then placed in a CO2 incubator. HIV-1 (strain LAV) was obtained from the Center for Disease Control, Atlanta, Ga. The methods used for culturing the PBM cells, harvesting the virus and determining the reverse transcriptase activity were those described by McDougal et al. (J. Immun. Meth. 76, 171-183, 1985) and Spira et al. (J. Clin. Meth. 25, 97-99, 1987), except that fungizone was not included in the medium (see Schinazi, et al., Antimicrob. Agents Chemother. 32, 1784-1787 (1988); Id., 34:1061-1067 (1990)).
D. On day 6, the cells and supernatant were transferred to a 15 ml tube and centrifuged at about 900 g for 10 minutes. Five ml of supernatant were removed and the virus was concentrated by centrifugation at 40,000 rpm for 30 minutes (Beckman 70.1 Ti rotor). The solubilized virus pellet was processed for determination of the levels of reverse transcriptase. Results are expressed in dpm/ml of sampled supernatant. Virus from smaller volumes of supernatant (1 ml) can also be concentrated by centrifugation prior to solubilization and determination of reverse transcriptase levels.

[7] = tested on: HBV (hepatitis B virus)

Nc1nc(=O)n(C2CSC(CO)O2)cc1F (racemic) [DLS-022, 2-hydroxymethyl-5-(5-fluorocytosin-1-yl)-1,3-oxathiolane]
IC50 at 6 days [1]: > 100 µM
uptake in human lymphocytes [2]: readily taken up
metabolism to triphosphate in human liver cells ([3]; hepG2 cells): metabolize a large percentage
uptake by hepG2 cells ([3]; human liver cells): taken up by hepG2 cells in large amounts
toxicity [4]: > 100 µM
toxicity [5]: > 100 µM
DPM/ml ([6]; 0.0001 μM): 73,755 DPM/ml
DPM/ml ([6]; 0.005 μM): 83,005 DPM/ml
DPM/ml ([6]; 0.01 μM): 60,465 DPM/ml
DPM/ml ([6]; 0.05 μM): 34,120 DPM/ml
DPM/ml ([6]; 0.1 μM): 14,160 DPM/ml
DPM/ml ([6]; 0.5 μM): 18,095 DPM/ml
DPM/ml ([6]; 1 μM): 7,555 DPM/ml
DPM/ml ([6]; 5 μM): 7,940 DPM/ml
DPM/ml ([6]; 10 μM): 5,810 DPM/ml
inhibition at 0.0001 µM ([6]; Human immunodeficiency virus 1, PBMC, 0.0001 μM, read-out: % Inhibition (Corrected)): 26.6%
pEC50 ([6]; Human immunodeficiency virus 1, PBMC, human PBM cells infected with HIV-1 (strain LAV), Table 3, read-out: Antiviral EC50): 7.96
pEC50 ([6]; Human immunodeficiency virus 1, PBMC, human PBM cells infected with HIV-1, enantiomers isolated by chiral HPLC (Example 3), read-out: EC50): 7.74
pEC50 ([6]; Human immunodeficiency virus 1, PBMC, human PBM cells infected with HIV-1, enantiomers resolved by method of Example 2 (FIG. 5), read-out: EC50): 7.77
inhibition at 0.005 µM ([6]; Human immunodeficiency virus 1, PBMC, 0.005 μM, read-out: % Inhibition (Corrected)): 16.3%
inhibition at 0.01 µM ([6]; Human immunodeficiency virus 1, PBMC, 0.01 μM, read-out: % Inhibition (Corrected)): 41.3%
inhibition at 0.05 µM ([6]; Human immunodeficiency virus 1, PBMC, 0.05 μM, read-out: % Inhibition (Corrected)): 70.4%
inhibition at 0.5 µM ([6]; Human immunodeficiency virus 1, PBMC, 0.5 μM, read-out: % Inhibition (Corrected)): 88.1%
inhibition at 1 µM ([6]; Human immunodeficiency virus 1, PBMC, 1 μM, read-out: % Inhibition (Corrected)): 99.7%
inhibition at 5 µM ([6]; Human immunodeficiency virus 1, PBMC, 5 μM, read-out: % Inhibition (Corrected)): 99.3%
inhibition at 10 µM ([6]; Human immunodeficiency virus 1, PBMC, 10 μM, read-out: % Inhibition (Corrected)): 102%
activity against HBV [7]: effective

From patent US20090239887A1, “Method of resolution and antiviral activity of 1,3-oxathiolane nucleoside enantiomers” (Emory University, priority 1990, published 2009)
